# Patent US20040081626A1, “Inhalation particles” (priority 1999, published 2004)
# Columns and labels:
# Assay type in all cases: physicochemical
# [1] = Particle crystallinity and polymorphism analysis by X-ray powder diffraction; conditions: for FWHMav: broadening of diffraction maxima positioned at 11.3° and 18.4°
# Protocol: Crystallinity and polymorphism of the sample was studied by X-ray powder diffraction (Diffractometer D500, Siemens GmbH, Karlsruhe, Germany). A copper target X-ray (wavelength 0.1541 nm) tube was operated with the power of 40 kV×40 mA. For x-ray powder diffraction analysis, 10 mg of the sample was mounted to a specific cylindrical single crystal mini sample stage, which has a diameter of 10 mm and height of approximately 1 mm. […] The patterns obtained were identical. There were not significant differences in peak positions and additional peaks were not observed. […] The relative degree crystallinity of the powder was also determined based on the x-ray powder diffraction patterns. It is noticed that the powder was well crystallised. The maximum intensities were sharp and well above background intensities. The estimation was based on the broadening of the diffraction maxima (FWHM-values) positioned at 11.3° and 18.4°. It is seen that the relative degree of crystallinity of the powder is 21% higher than that of the reference powder.
# [2] = Particle shape and surface structure by FE-SEM; conditions: 2 kV
# Description: Referring now to FIG. 1c, individual particles were collected on the surface of a holey carbon film TEM grid (14) connected to a vacuum (15) after particle collection. The morphology of the particles were then imaged using a field emission low voltage scanning electron microscope (FE-SEM) operated at 2 kV acceleration voltage. FIGS. 4a to 4d are scanning electron microscope images of the powder (magnification ×20000 in FIGS. 4b, 4c, 4d and ×23000 in FIG. 4a).
# [3] = Particle size analysis by electrical low pressure impactor (ELPI), measured gravimetrically; conditions: mass size distribution, dilution ratio 1:10
# Protocol: Referring now to FIG. 1b, the particle size distribution was measured by an electrical low pressure impactor (12) (ELPI) connected to a vacuum (13). The particles exiting the tubular tube were passed into a diluter (10), with a dilution ratio of 1:10, before entering the ELPI. Exhaust gas exit (11) was arranged in the diluter. To minimize temperature gradient, and thus to reduce the moisture condensation, the diluter, the line to the diluter and the gas line into the diluter were layered with heating elements, which were kept at a temperature higher than that of the solution dew point. […] It is shown that a narrow size distribution within the range of aerodynamic particle size of interest, i.e. at around 1-5 μm, was obtained.
FWHMav [1] [°],polymorphism ([1]; diffraction pattern compared to reference beclomethasone dipropionate powder),particle diameter [2],particle shape and surface structure [2],aerodynamic particle size distribution [3],SMILES
0.26,polymorphic crystal form class I,2-3 μm,spherical with rough surfaces,1-5 μm,CCC(=O)OCC(=O)[C@@]1(OC(=O)CC)[C@@H](C)C[C@H]2[C@@H]3CCC4=CC(=O)C=C[C@]4(C)[C@@]3(Cl)[C@@H](O)C[C@@]21C [Obtained beclomethasone dipropionate powder]
0.33,–,–,–,–,"CCC(=O)OCC(=O)[C@@]1(OC(=O)CC)[C@@H](C)C[C@H]2[C@@H]3CCC4=CC(=O)C=C[C@]4(C)[C@@]3(Cl)[C@@H](O)C[C@@]21C [Reference powder, beclomethasone dipropionate, reference compound]"
